pEC50: −log10 of the molar value.
Legend:
T. congolense IL3000 = tested on: T1, T. congolense IL3000; assay: microbe, parasite or virus in culture; design: Alamar blue (resazurin) viability assay of in vitro grown trypanosomes, fluorescence read-out; settings: Trypanosoma congolense, parental strain IL3000
T1 construct: IL3000
Procedure: At the point of adaptation to 550 nM, the level of DA resistance and the extent of any cross-resistance with the diamidine drugs pentamidine and DB829, and with oxaboroles AN7973 and SCYX7158, was tested using an assay based on the viability dye Alamar blue (resazurin), in which live trypanosomes (but not dead ones) reduce blue and non-fluorescent resazurin to pink, fluorescent resorufin. This assay yields a fluorescent output that is proportional to the number of cells in the well [36]. […] Resistance to DA, as measured in this assay, was ~2.3-3-fold, and highly significant (Fig 1A for fold differences and P values, Table 1 for EC50 values). […] Importantly, there was no cross-resistance with isometamidium, nor with either of the oxaboroles tested, AN7973 and SCYX7158. To further investigate the limits of cross-resistance with other diamidines, a series of bis-benzofuran analogues were tested (Table 1). These analogues were chosen to explore the effect of variable linker length between the benzofuramidine end groups, varying inter-amidine distance as well as the flexibility of the molecule.

TbAT1 = biological target: T2, TbAT1 (Trypanosoma brucei, UniProt Q9Y0I0); assay: inhibition of [3H]-diminazene uptake in transfected bloodstream-form trypanosomes; type: cell-based; settings: read-out: % inhibition at 1 mM
T2 construct: gene AT1; full-length transporter expressed in T. b. brucei bloodstream-form clone B48 (lacks native TbAT1/P2 and wild-type TbAQP2)
T2 sequence (Q9Y0I0 entry or part of it): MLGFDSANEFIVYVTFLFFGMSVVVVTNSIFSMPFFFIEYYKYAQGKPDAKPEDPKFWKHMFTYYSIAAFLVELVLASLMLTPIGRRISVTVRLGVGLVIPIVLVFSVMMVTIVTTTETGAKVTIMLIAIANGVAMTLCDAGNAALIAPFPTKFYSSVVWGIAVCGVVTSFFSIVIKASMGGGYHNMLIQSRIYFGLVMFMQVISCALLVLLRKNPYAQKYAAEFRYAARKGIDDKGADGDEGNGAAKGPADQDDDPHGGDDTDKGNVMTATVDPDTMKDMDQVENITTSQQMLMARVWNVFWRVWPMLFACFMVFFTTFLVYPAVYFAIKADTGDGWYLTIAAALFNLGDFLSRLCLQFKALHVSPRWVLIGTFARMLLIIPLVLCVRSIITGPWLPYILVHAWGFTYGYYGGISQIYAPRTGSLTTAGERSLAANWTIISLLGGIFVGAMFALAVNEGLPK

SMILES | pEC50 (T. congolense IL3000; first series) | inhibition at 1000 µM (TbAT1) [%] | pEC50 (T. congolense IL3000; second series)
CC1(C)OB(O)c2cc(NC(=O)c3ccc(-n4cccn4)cc3Cl)ccc21 [AN7973] | 6.92 |  | 
Nc1ncnc2c1ncn2[C@@H]1O[C@H](CO)[C@@H](O)[C@H]1O [Ado, adenosine] |  | 100 | 
N=C(N)c1ccc(N=NNc2ccc(C(=N)N)cc2)cc1 [DA, diminazene aceturate] | 6.57 |  | 6.48
CC[n+]1c(-c2ccccc2)c2cc(N/N=N/c3cccc(C(=N)N)c3)ccc2c2ccc(N)cc21 [Isometamidium] | 8.01 |  | 
N=C(N)c1ccc(OCCCCCOc2ccc(C(=N)N)cc2)cc1 [Pentamidine] | 6.00 |  | 
CC1(C)OB(O)c2cc(NC(=O)c3ccc(F)cc3C(F)(F)F)ccc21 [SCYX-7158] | 6.28 |  | 

Source: doi:10.1101/2020.07.28.224543v1, “Diminazene resistance in Trypanosoma congolense is linked to reduced mitochondrial membrane potential and not to reduced transport capacity” (biorxiv, 2020)
